Test results reported in US12358921B2, “Antiviral heterocyclic compounds” (priority 2022, dated 2025).

The compounds below were run on hMPV A2 TN/94-49 (assay: HMPV antiviral assay Method 2 (LLC-MK2 cells with CP-100-356, ATP-Lite)). Details: hMPV A2 TN/94-49, LLC-MK2 cells, 4 μM CP-100-356, Method 2.
Format: cell-based
Method: In vitro HMPV antiviral activity was evaluated using the clinical isolate A2 strain TN 94-49 (obtained from Dr. John Williams, Vanderbilt University, Tennessee) and LLC-MK2 cells (Millipore Sigma CB_85062804), an immortalized kidney epithelial cell line from Macaca mulatta. Compounds were resuspended in dimethyl sulfoxide (DMSO) at 10 mM, serially diluted and added to a 384-well source plate. Subsequently, the compounds were diluted and transferred onto 384-well assay plates using the Echo-650 automated liquid handling system (Beckman Coulter, Indiana). The test compounds were assessed in duplicate at a top concentration of 200 nM followed by 2.5-fold serial dilutions to give a total of 10 concentration points. DMSO control wells were also included on the assay plates and were either infected or not, acting as positive and negative controls. A2 TN 94-49 virus infections were performed in-suspension with LLC-MK2 cells. The cells were washed twice with PBS and removed from the cell-culture flask with 0.25% trypsin-EDTA (Thermo Fisher Scientific, MA). The trypsin-EDTA was inactivated by resuspending in 2% fetal bovine serum (FBS) and OptiMEM (ThermoFisher Scientific, MA) containing 1% antibiotic-antimycotic. Cells were pelleted by centrifuging for 5 minutes at 800 rpm, the supernatant was removed, and cells were re-suspended and washed in PBS plus 100 μg/mL CaCl2). This step was performed twice. Cells were then re-suspended in serum-free (SF)-OptiMEM containing 4 μg/mL TPCK-Trypsin (Sigma Aldrich, MO), 1% antibiotic-antimycotic (ThermoFisher Scientific, MA), 100 μg/mL CaCl2), and 4 μM of CP-100-356, a P-glycoprotein inhibitor. Cells were counted and seeded at a density of 5,000 cells/well, 12.5 μL/well. Virus infections were done at a multiplicity of infection (MOI) of 0.16 with 12.5 μL added per well. Virus infections were performed in infection media which contained SF-OptiMEM, 100 μg/mL CaCl2) and 1% antibiotic-antimycotic. HMPV viral stocks are suspended in infection media+5% glycerol, thus an equal volume of infection media+5% glycerol was added to uninfected wells to equalize the final % glycerol across all wells of the assay plate. The final concentration of TPCK-trypsin was 2 μg/mL. The final concentration of CP-100-356 was 2 μM. The assay plates were incubated at 37° C., 5% CO2 for 7 days. After 7 days incubation, 12.5 μL of ATP-Lite (PerkinElmer, MA) was added to each well and the raw luminescence values were determined using the Envision 2104 (Perkin Elmer, MA). The average of the raw luminescence values for the cells and virus only positive control wells was subtracted from all conditions tested and the percent cell health was determined by dividing these values by the average of the cells only negative control wells. EC50 values were then calculated by non-linear regression using a four-parameter curve logistic equation. The curve fit model employed was XLFit Dose Response One Site Model 200: y=(A+(B/(1+((x/C)^D)))), where A is the minimum y value, B is the maximum y value, C is the log EC50value, and D is the slope factor.

| SMILES | EC50 |
| --- | --- |
| C[C@]1(C(N)=O)COc2c1cc([C@@](O)(CNC(=O)c1ccc3nc(C(F)F)oc3c1)c1ccccc1)nc2-c1cc(Cl)c(F)cc1F [Example 222] | > 0.2 µM |
| C[C@]1(C(N)=O)COc2c1cc([C@@](O)(CNC(=O)c1ccc3nc(C4CCC4)oc3c1)c1ccccc1)nc2-c1cc(Cl)c(F)cc1F [Example 221] | > 0.2 µM |
| COc1c(F)ccc(-c2nc([C@@](O)(CNC(=O)c3cc(OC)c4nn(C5(F)CC5)cc4c3)c3ccccc3)cc3c2OC[C@]3(C)C(N)=O)c1Cl [Example 375] | < 0.2 µM |
| COc1cc(C(=O)NCC(O)(c2cccc(F)c2)c2cc3c(c(-c4cccc(Cl)c4C#N)n2)OC[C@]3(C)C(N)=O)cc2cn(C3(F)CC3)nc12 (stereo partly shown) [Example 399] | > 0.2 µM |
| C[C@]1(C(N)=O)COc2c1cc([C@@](O)(CNC(=O)c1cc(C(F)F)c3nn(C4CC4)cc3c1)c1ccccc1)nc2-c1cc(Cl)c(F)cc1F [Example 229] | < 0.2 µM |
| C[C@]1(C(N)=O)COc2c1cc([C@@](O)(CNC(=O)c1cc(OC3CC3)c3ncc(Cl)cc3c1)c1ccccc1)nc2-c1cc(C(F)(F)F)c(F)cc1F [Example 315] | < 0.2 µM |
| COc1cccc(-c2nc([C@@](O)(CNC(=O)c3cc(OC)c4nn(C5(F)CC5)cc4c3)c3ccccc3)cc3c2OC[C@]3(C)C(N)=O)c1Cl [Example 374] | < 0.2 µM |
| COc1cc(C(=O)NCC(O)(c2ccccc2)c2cc3c(c(-c4ccc(F)cc4)n2)OC[C@]3(C)C(N)=O)cc2cn(C3(F)CC3)nc12 (stereo partly shown) [Example 361] | > 0.2 µM |
| COc1cc(C(=O)NC[C@@](O)(c2ccccc2)c2cc3c(c(-c4cc(Cl)c(F)cc4F)n2)OC[C@]3(C)C(N)=O)cc(O)c1NC(=O)C1(F)CC1 [Example 242] | > 0.2 µM |
| COc1cc([C@](O)(CNC(=O)c2cc(OC)c3nn(C4CC4)cc3c2)c2cc3c(c(-c4cc(Cl)c(F)cc4F)n2)OC[C@]3(C)C(N)=O)cc(F)n1 [Example 503] | < 0.2 µM |
| C[C@]1(C(N)=O)COc2c1cc([C@@](O)(CNC(=O)c1ccc3nc(Cc4ccccc4)oc3c1)c1ccccc1)nc2-c1cc(Cl)c(F)cc1F [Example 230] | > 0.2 µM |
| COc1cc(C(=O)NC[C@@](O)(c2ccccc2)c2cc3c(c(-c4cccc(F)c4F)n2)OC[C@]3(C)C(N)=O)cc2cn(C3(F)CC3)nc12 [Example 367] | < 0.2 µM |
| COc1cc(C(=O)NC[C@@](O)(c2ccccc2)c2cc3c(c(-c4cc(Cl)ccc4F)n2)OC[C@]3(C)C(N)=O)cc2oc(C3CC3)nc12 [Example 331] | < 0.2 µM |
| C[C@]1(C(N)=O)COc2c1cc([C@@](O)(CNC(=O)c1ccc3nc(-c4ccc5nc(C(F)F)oc5c4)oc3c1)c1ccccc1)nc2-c1cc(Cl)c(F)cc1F [Example 223] | > 0.2 µM |
| COc1cc(C(=O)NCC(O)(c2ccc(F)cn2)c2cc3c(c(-c4cc(Cl)c(F)cc4F)n2)OC[C@]3(C)C(N)=O)cc2cn(C3CC3)nc12 (stereo partly shown) [Example 210] | < 0.2 µM |
| COc1cc(C(=O)NC[C@@](O)(c2cccc(F)c2)c2cc3c(c(-c4cccc(Cl)c4Cl)n2)OC[C@]3(C)C(N)=O)cc2cc(Cl)cnc12 [Example 333] | < 0.2 µM |
| C[C@]1(C(N)=O)COc2c1cc([C@@](O)(CNC(=O)c1cc(Cl)c3nn(C(F)F)cc3c1)c1ccccc1)nc2-c1cc(Cl)c(F)cc1F [Example 102] | > 0.2 µM |
| C[C@]1(C(N)=O)COc2c1cc([C@@](O)(CNC(=O)c1cc(OC(F)F)c3ncc(Cl)cc3c1)c1ccccc1)nc2-c1cc(Cl)c(F)cc1F [Example 231] | < 0.2 µM |
| COc1cc(C(=O)NC[C@@](O)(c2ccccc2)c2cc3c(c(-c4ccc5c(c4)OC(F)(F)O5)n2)OC[C@]3(C)C(N)=O)cc2oc(C)nc12 [Example 201] | < 0.2 µM |
| COc1cc(C(=O)NC[C@@](O)(c2ccccc2)c2cc3c(c(-c4cc(Cl)c(F)cc4F)n2)OC[C@]3(C)C(N)=O)cc2c1OCCC2 [Example 93] | > 0.2 µM |
| Cc1nc2c(OC3CC3)cc(C(=O)NC[C@@](O)(c3ccccc3)c3cc4c(c(-c5cc(Cl)c(F)cc5F)n3)OC[C@]4(C)C(N)=O)cc2o1 [Example 234] | < 0.2 µM |
| C[C@]1(C(N)=O)COc2c1cc([C@@](O)(CNC(=O)c1cc(Cl)c3nc(C4CC4)oc3c1)c1ccccc1)nc2-c1cc(Cl)c(F)cc1F [Example 232] | < 0.2 µM |

| SMILES | EC50 |
| --- | --- |
| CNc1cc([C@](O)(CNC(=O)c2cc(OC)c3nn(C4CC4)cc3c2)c2cc3c(c(-c4cc(Cl)c(F)cc4F)n2)OC[C@]3(C)C(N)=O)ccn1 [Example 490] | < 0.2 µM |
| COc1cc(C(=O)NC[C@@](O)(c2cccc(C(C)O)c2)c2cc3c(c(-c4cccc(Cl)c4Cl)n2)OC[C@]3(C)C(N)=O)cc2cn(C3CC3)nc12 (stereo partly shown) [Example 495] | > 0.2 µM |
| Cc1cc(C(=O)NC[C@@](O)(c2ccccc2)c2cc3c(c(-c4cc(Cl)c(F)cc4F)n2)OC[C@]3(C)C(N)=O)cc2cn[nH]c12 [Example 118] | < 0.2 µM |
| C[C@]1(C(N)=O)COc2c1cc([C@@](O)(CNC(=O)c1cc(OC3CC3)c3nc(C4CC4)oc3c1)c1ccccc1)nc2-c1cc(Cl)c(F)cc1F [Example 233] | < 0.2 µM |
| C[C@]1(C(N)=O)COc2c1cc([C@@](O)(CNC(=O)c1ccc3nc(C4CC4)oc3c1)c1cccc(F)c1)nc2-c1ccc(F)c(Cl)c1Cl [Example 312] | < 0.2 µM |
| COc1cc([C@](O)(CNC(=O)c2cc(OC)c3nn(C4CC4)cc3c2)c2cc3c(c(-c4cccc(Cl)c4Cl)n2)OC[C@]3(C)C(N)=O)ccn1 [Example 494] | < 0.2 µM |
| COc1cc(C(=O)NC[C@@](O)(c2ccccc2)c2cc3c(c(-c4ccc5c(c4)OC(F)(F)O5)n2)OC[C@]3(C)C(N)=O)cc2oc(C3CC3)nc12 [Example 200] | < 0.2 µM |
| COc1cc(C(=O)NC[C@@](O)(c2ccccc2)c2cc3c(c(-c4cc(S(C)(=O)=O)ccc4F)n2)OC[C@]3(C)C(N)=O)cc2cn(C3(F)CC3)nc12 [Example 372] | > 0.2 µM |
| COc1cc(C(=O)NC[C@](O)(c2cc3c(c(-c4cc(Cl)c(F)cc4F)n2)OC[C@]3(C)C(N)=O)c2ccn(C)n2)cc2cn(C3CC3)nc12 [Example 480] | < 0.2 µM |
| COc1cc(C(=O)NC[C@@](O)(c2cnc(C3CC3)nc2)c2cc3c(c(-c4cc(Cl)c(F)cc4F)n2)OC[C@]3(C)C(N)=O)cc2cn(C3CC3)nc12 [Example 478] | < 0.2 µM |
| Cc1nc2c(OC3CC3)cc(C(=O)NC[C@@](O)(c3ccccc3)c3cc4c(c(-c5cc(Cl)c(F)cc5F)n3)OC[C@]4(C)C(N)=O)cc2s1 [Example 189] | < 0.2 µM |
| COc1cc(C(=O)NCC(O)(c2ccccc2)c2cc3c(c(-c4ccc(F)c(Cl)c4)n2)OC[C@]3(C)C(N)=O)cc2cn(C3(F)CC3)nc12 (stereo partly shown) [Example 362] | < 0.2 µM |
| C[C@]1(C(N)=O)COc2c1cc([C@@](O)(CNC(=O)c1cc(C(F)(F)F)c3nn(C4CC4)cc3c1)c1ccccc1)nc2-c1cc(Cl)c(F)cc1F [Example 228] | < 0.2 µM |
| COc1cc(C(=O)NC[C@@](O)(c2ccccc2)c2cc3c(c(-c4ccc5c(c4)OC(F)(F)O5)n2)OC[C@]3(C)C(N)=O)cc2cc(Cl)cnc12 [Example 202] | < 0.2 µM |
| COc1cc(C(=O)NC[C@@](O)(c2ccccc2)c2cc3c(c(-c4cc(C(F)(F)F)ccc4F)n2)OC[C@]3(C)C(N)=O)cc2oc(C3CC3)nc12 [Example 332] | < 0.2 µM |
| COc1cc(OC)c2cc(C(=O)NC[C@@](O)(c3ccccc3)c3cc4c(c(-c5cc(Cl)c(F)cc5F)n3)OC[C@]4(C)C(N)=O)[nH]c2c1 [Example 94] | > 0.2 µM |
| COc1cc(F)c(F)cc1-c1nc([C@@](O)(CNC(=O)c2cc(OC)c3nn(C4(F)CC4)cc3c2)c2ccccc2)cc2c1OC[C@]2(C)C(N)=O [Example 365] | < 0.2 µM |
| C[C@]1(C(N)=O)COc2c1cc([C@@](O)(CNC(=O)c1ccc3nc(-c4ccccc4)oc3c1)c1ccccc1)nc2-c1cc(Cl)c(F)cc1F [Example 227] | > 0.2 µM |
| COc1cc(C(=O)NC[C@@](O)(c2cncnc2)c2cc3c(c(-c4cc(Cl)c(F)cc4F)n2)OC[C@]3(C)C(N)=O)cc2cn(C3CC3)nc12 [Example 479] | < 0.2 µM |
| Cc1nc2c(OC(F)(F)F)cc(C(=O)NC[C@@](O)(c3ccccc3)c3cc4c(c(-c5cc(Cl)c(F)cc5F)n3)OC[C@]4(C)C(N)=O)cc2s1 [Example 188] | > 0.2 µM |
| C[C@]1(C(N)=O)COc2c1cc([C@@](O)(CNC(=O)c1cc(OC(F)F)c3nc(C4CC4)oc3c1)c1ccccc1)nc2-c1cc(Cl)c(F)cc1F [Example 216] | < 0.2 µM |
